# Assay results taken from US11369598B2, “Treatment of T-cell mediated diseases” (Ampio Pharmaceuticals, Inc., priority 2003, dated 2022).
# Like-named read-outs stand apart in the source and are kept apart here.
# Experiments:
# ERK1 = experiment: Hypromatrix Array phosphorylation, TRiPS cell extracts; assay type: cell-based, human; set-up: key to ERK1 phosphorylation score: 0 (negative); + to ++++ (positive); + to ++++ (positive); + to ++++ (positive); + to ++++ (positive); conditions: 30 minutes at 37° C., 0.5 mM DA-DKP or 1:500 dilution of HC 2626
# Protocol: (§1) The mechanism of action of DA-DKP and HC 2626 (containing MR-DKP) was investigated. […] After the incubation, the cells were lysed in Cell-Lytic Mammalian Cell Extraction Reagent (Sigma).
# (§2) The cell extracts were then separately incubated with duplicate Hypromatrix Arrays for 2 hours at room temperature, followed by two washes following the manufacturer's (Hypromatrix) protocol. The Hypromatrix Array is a nylon membrane blotted with antibodies to the transcription factors listed in Table 1 (custom manufactured by Hypromatrix). An antibody cocktail specific for phosphorylated-tyrosine, phosphorylated-serine and phosphorylated-threonine (Zymed) was added, incubated for 1 hour. Then, an anti-immunoglobulin antibody labeled with biotin was added. After washing the anti-immunoglobulin-biotin away, streptavidin-peroxidase was added, and the arrays given a final wash before adding a peroxidase-reactive luminescent substrate.
# IκB-α = experiment: as above; assay type: cell-based, human; set-up: key: 0 (negative); + to ++++ (positive); + to ++++ (positive); + to ++++ (positive); + to ++++ (positive); conditions: day 18 TRiPS cells + CD3/CD28 beads, 30 minutes at 37° C.; 0.5 mM DA-DKP or 1:500 dilution of HC 2626
# Protocol: as §1, §2
# Akt ½ = experiment: as above; assay type: cell-based, human; set-up: key: 0 (negative); + to ++++ (positive); + to ++++ (positive); + to ++++ (positive); + to ++++ (positive); conditions: day 18 TRiPS cells + CD3/CD28 beads, 30 minutes at 37° C.; 0.5 mM DA-DKP or 1:500 dilution of HC 2626
# Protocol: as §1, §2
# p38 MAPK = experiment: as above; assay type: cell-based, human; set-up: key: 0 (negative); + to ++++ (positive); + to ++++ (positive); + to ++++ (positive); + to ++++ (positive); conditions: day 18 TRiPS cells + CD3/CD28 beads, 30 minutes at 37° C.; 0.5 mM DA-DKP or 1:500 dilution of HC 2626
# Protocol: as §1, §2
# Rap1 = experiment: as above; assay type: cell-based, human; set-up: key: 0 (negative); + to ++++ (positive); + to ++++ (positive); + to ++++ (positive); + to ++++ (positive); conditions: day 18 TRiPS cells + CD3/CD28 beads, 30 minutes at 37° C.; 0.5 mM DA-DKP or 1:500 dilution of HC 2626
# Protocol: as §1, §2
# csk = experiment: as above; assay type: cell-based, human; set-up: key: 0 (negative); + to ++++ (positive); + to ++++ (positive); + to ++++ (positive); + to ++++ (positive); conditions: day 18 TRiPS cells + CD3/CD28 beads, 30 minutes at 37° C.; 0.5 mM DA-DKP or 1:500 dilution of HC 2626
# Protocol: as §1, §2
# c-jun = experiment: as above; assay type: cell-based, human; set-up: key: 0 (negative); + to ++++ (positive); + to ++++ (positive); + to ++++ (positive); + to ++++ (positive); conditions: day 18 TRiPS cells + CD3/CD28 beads, 30 minutes at 37° C.; 0.5 mM DA-DKP or 1:500 dilution of HC 2626
# Protocol: as §1, §2
# CBP = experiment: as above; assay type: cell-based, human; set-up: key: 0 (negative); + to ++++ (positive); + to ++++ (positive); + to ++++ (positive); + to ++++ (positive); conditions: day 18 TRiPS cells + CD3/CD28 beads, 30 minutes at 37° C.; 0.5 mM DA-DKP or 1:500 dilution of HC 2626
# Protocol: as §1, §2
# fyn = experiment: as above; assay type: cell-based, human; set-up: key: 0 (negative); + to ++++ (positive); + to ++++ (positive); + to ++++ (positive); + to ++++ (positive); conditions: day 18 TRiPS cells + CD3/CD28 beads, 30 minutes at 37° C.; 0.5 mM DA-DKP or 1:500 dilution of HC 2626
# Protocol: as §1, §2
# pI3 kinase/p85 = experiment: as above; assay type: cell-based, human; set-up: key: 0 (negative); + to ++++ (positive); + to ++++ (positive); + to ++++ (positive); + to ++++ (positive); conditions: day 18 TRiPS cells + CD3/CD28 beads, 30 minutes at 37° C.; 0.5 mM DA-DKP or 1:500 dilution of HC 2626
# Protocol: as §1, §2
# [1] = 12 days after stimulation with anti-CD3 OKT3 antibody, 0.5 mM DA-DKP
substance,measurement,setting,value
Asp-Ala diketopiperazine [DA-DKP],ERK1 phosphorylation score,ERK1; day 18 TRiPS cells + CD3/CD28 beads,+
same,cytokine transcriptional factor activation (ERK1/2),"ERK1; day 18 TRiPS cells, CD3/CD28 beads",inhibited
same,IκB-α phosphorylation score,IκB-α,+
same,Akt ½ phosphorylation score,Akt ½,+++
same,p38 MAPK phosphorylation score,p38 MAPK,+++
same,Rap1 phosphorylation score,Rap1,++
same,csk phosphorylation score,csk,+
same,c-jun phosphorylation score,c-jun,+
same,CBP phosphorylation score,CBP,++
same,fyn phosphorylation score,fyn,+
same,pI3 kinase/p85 phosphorylation score,pI3 kinase/p85,+
same,secretion of IL-16 from TriPS cells (FIG. 2),TriPS cells; [1],decreased
same,secretion of TNFα from TriPS cells (FIG. 2),TriPS cells; [1],decreased
same,release of pre-formed cytokines,TriPS cells; TRiPS cells,inhibited
same,effect on TNFα secretion from TriPS cells (FIG. 4),TriPS cells; early in the stimulation cycle,inhibitory
same,effect on TNFα secretion from TriPS cells (FIG. 4),TriPS cells; later in the cycle (day 14),stimulatory
